Reference: patent US9681664B2, “Macrocyclic picolinamides as fungicides” (Dow Agrosciences LLC, priority 2012, dated 2017)
Read-outs that look alike come from different tables or passages of the source.

What was measured:
Assay type in all cases: in vivo
[1] = system: Mycosphaerella graminicola; Anamorph: Septoria tritici; test: Leaf blotch of wheat (SEPTTR) disease control on wheat seedlings; conditions: Zymoseptoria tritici; for pest or weed control at 121.5 g/ha: low volume application, 121.5 g/H
Method in brief: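 Wheat seedlings (Yuma, first leaf emerged) sprayed to run-off with compound in acetone/water with 110 ppm Triton X-100, or track-sprayed as EC with 0.1% Trycol 5941. Septoria tritici spores inoculated before or after treatment. Dew chambers, then 20 °C greenhouse. Percent disease control derived from severity (0–100%) relative to untreated plants.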

[2] = system: Puccinia triticina; Synonym: Puccinia recondite f. sp. tritici; test: Wheat brown rust (PUCCRT) disease control on wheat seedlings; conditions: Puccinia triticina; for pest or weed control at 121.5 g/ha: low volume application, 121.5 g/H
Method in brief: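 Acetone solutions diluted in nine volumes of water with 110 ppm Triton X-100 sprayed to run-off on first-leaf Yuma wheat seedlings (track spray: EC with 0.1% Trycol 5941). Puccinia triticina spores inoculated before or after treatment; overnight dark dew at 22° C., 100% RH, then greenhouse at 24° C. for disease development.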

Phakopsora pachyrhizi = test: Asian soybean rust (PHAKPA) disease control; conditions: topical, high volume
Method: Technical grades of materials were dissolved in acetone, which were then mixed with nine volumes of water containing 0.011% Tween 20. The fungicide solutions were applied onto soybean seedlings using an automated booth sprayer to run-off. All sprayed plants were allowed to air dry prior to further handling.
Soybean plants (variety Williams 82) were grown in soil-less Metro mix, with one plant per pot. Two weeks old seedlings were used for testing. Plants were inoculated either 3 days prior to or 1 day after fungicide treatments. Plants were incubated for 24 h in a dark dew room at 22° C. and 100% RH then transferred to a growth room at 23° C. for disease to develop. Disease severity was assessed on the sprayed leaves.

[3] = 24 h, High volume application, 1 Day Protectant, read-out: SEPTTR 1DP disease control
[4] = 72 h, High volume application, 3 Day Curative, read-out: SEPTTR 3DC disease control
[5] = 24 h, High volume application, 1 Day Protectant, read-out: PUCCRT 1DP disease control
[6] = 72 h, High volume application, 3 Day Curative, read-out: PUCCRT 3DC disease control
[7] = 24 h, 1 Day Protectant, read-out: Disease Control PHAKPA 1DP
[8] = 24 h, Wheat Leaf Blotch, 1 Day Protectant, high volume application, read-out: Disease Control SEPTTR 1 DP 100 ppm
[9] = 72 h, Wheat Leaf Blotch, 3 Day Curative, high volume application, read-out: Disease Control SEPTTR 3 DC 100 ppm
[10] = 24 h, Wheat Brown Rust, 1 Day Protectant, high volume application, read-out: Disease Control PUCCRT 1 DP 100 ppm
[11] = 72 h, Wheat Brown Rust, 3 Day Curative, high volume application, read-out: Disease Control PUCCRT 3 DC 100 ppm

Compound | pest or weed control at 100 ppm [1, 3] | pest or weed control at 100 ppm [1, 4] | pest or weed control at 100 ppm [2, 5] | pest or weed control at 100 ppm [2, 6] | pest or weed control at 25 ppm (Phakopsora pachyrhizi; [7]) | pest or weed control at 25 ppm (Phakopsora pachyrhizi; 72 h, 3 Day Curative, read-out: Disease Control PHAKPA 3DC) | pest or weed control at 100 ppm [1, 8] | pest or weed control at 100 ppm [1, 9] | pest or weed control at 100 ppm [2, 10] | pest or weed control at 100 ppm [2, 11] | pest or weed control at 121.5 g/ha ([1]; 24 h, Wheat Leaf Blotch, 1 Day Protectant, read-out: Disease Control SEPTTR 1 DP 121.5 g/H) | pest or weed control at 121.5 g/ha ([1]; 72 h, Wheat Leaf Blotch, 3 Day Curative, read-out: Disease Control SEPTTR 3 DC 121.5 g/H) | pest or weed control at 121.5 g/ha ([2]; 24 h, Wheat Brown Rust, 1 Day Protectant, read-out: Disease Control PUCCRT 1 DP 121.5 g/H) | pest or weed control at 121.5 g/ha ([2]; 72 h, Wheat Brown Rust, 3 Day Curative, read-out: Disease Control PUCCRT 3 DC 121.5 g/H)
COc1ccnc(C(=O)N[C@H]2CCC[C@H](OCC(C)C)[C@@H](OCCCC(F)(F)F)[C@H](C)OC2=O)c1OCOC(C)=O [F44] | 80 to 100% | 80 to 100% | 80 to 100% | 80 to 100% | 80 to 100% | – | – | – | – | – | – | – | – | –
CCCO[C@H]1[C@H](C)OC(=O)[C@@H](NC(=O)c2nccc(OC)c2OCOC(C)=O)CCC[C@@H]1OCC(C)C [F45] | 80 to 100% | 80 to 100% | 80 to 100% | 80 to 100% | 80 to 100% | 80 to 100% | – | – | – | – | – | – | – | –
COc1ccnc(C(=O)N[C@H]2CCC[C@H](OCC(C)C)[C@@H](OC(=O)C3CC3)[C@H](C)OC2=O)c1OCOC(C)=O [F46] | 80 to 100% | 80 to 100% | 80 to 100% | 80 to 100% | 80 to 100% | – | – | – | – | – | – | – | – | –
CCCO[C@H]1[C@H](C)OC(=O)[C@@H](NC(=O)c2nccc(OC)c2OC(C)=O)CCC[C@@H]1OCC(C)C [F47] | 80 to 100% | 80 to 100% | 80 to 100% | 80 to 100% | < 0% | – | – | – | – | – | – | – | – | –
COc1ccnc(C(=O)N[C@H]2CCC[C@H](OCC(C)C)[C@@H](OC/C=C/C(F)(F)F)[C@H](C)OC2=O)c1OCOC(C)=O [F59] | 80 to 100% | 80 to 100% | 80 to 100% | 80 to 100% | 80 to 100% | – | – | – | – | – | – | – | – | –
COc1ccnc(C(=O)N[C@H]2CCC[C@H](OC3CCCC3)[C@@H](OC3CCCC3)[C@H](C)OC2=O)c1OCOC(=O)C(C)C [F76] | 80 to 100% | 80 to 100% | 80 to 100% | 80 to 100% | 80 to 100% | – | – | – | – | – | – | – | – | –
COc1ccnc(C(=O)N[C@H]2CCC[C@H](OC3CCCC3)[C@@H](OC3CCCC3)[C@H](C)OC2=O)c1OC(C)=O [F77] | 80 to 100% | 80 to 100% | 80 to 100% | 80 to 100% | 80 to 100% | – | – | – | – | – | – | – | – | –
COc1ccnc(C(=O)N[C@H]2CCC[C@H](OC3CCCC3)[C@@H](Oc3ccccc3)[C@H](C)OC2=O)c1OCOC(=O)C(C)C [F79] | 80 to 100% | 80 to 100% | 80 to 100% | 80 to 100% | 80 to 100% | – | – | – | – | – | – | – | – | –
COc1ccnc(C(=O)N[C@H]2CCC[C@H](OC3CCCC3)[C@@H](Oc3ccccc3)[C@H](C)OC2=O)c1OC(C)=O [F81] | 80 to 100% | 80 to 100% | 80 to 100% | 80 to 100% | 80 to 100% | – | – | – | – | – | – | – | – | –
CCCO[C@H]1CCC[C@H](NC(=O)c2nccc(OC)c2O)C(=O)O[C@@H](C)[C@@H]1Oc1ccc(-c2ccccc2)cc1 [F283] | – | – | – | – | – | – | 80 to 100% | 0 to 80% | 80 to 100% | 0 to 80% | – | – | – | –
CCCO[C@H]1[C@H](C)OC(=O)[C@@H](NC(=O)c2nccc(OC)c2OC(C)=O)CCC[C@@H]1Oc1cccc(F)c1 [F284] | – | – | – | – | – | – | 80 to 100% | 80 to 100% | 80 to 100% | 80 to 100% | 80 to 100% | 80 to 100% | 80 to 100% | 80 to 100%
